What was measured:
Assay in all cases: relative viability (nuclei count vs DMSO), 5 days (fraction); higher = more cells survive
[1] = compound: Nc1nc(Nc2ccc3c(c2)CC[C@@H](N2CCCC2)CC3)nn1-c1cc2c(nn1)-c1ccccc1CCC2 [Bemcentinib] + Cc1nc(NC(=O)N2CCC[C@H]2C(N)=O)sc1-c1ccnc(C(C)(C)C(F)(F)F)c1 [Alpelisib] (partner 2 µM)
Summary of the method: (§1)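 Lung cancer cell lines in 1536-well plates got either a single drug or a fixed anchor-drug dose together with five library-drug doses (not always all listed) in √10 steps, by pin tool, on the day after seeding. Nuclei were counted after 5 days, and relative viability is the treated-to-vehicle ratio of nuclei counts. Values are medians of duplicate plates.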

[2] = compound: Nc1nc(Nc2ccc3c(c2)CC[C@@H](N2CCCC2)CC3)nn1-c1cc2c(nn1)-c1ccccc1CCC2 [Bemcentinib] + COc1cccc2cc(-c3nc([C@H]4CC[C@H](C(=O)O)CC4)n4ncnc(N)c34)[nH]c12 [OSI-027] (partner 0.5 µM)
Summary of the method: as §1

[3] = compound: Nc1nc(Nc2ccc3c(c2)CC[C@@H](N2CCCC2)CC3)nn1-c1cc2c(nn1)-c1ccccc1CCC2 [Bemcentinib] + C[C@@H](Oc1cc(-c2cnn(C3CCNCC3)c2)cnc1N)c1c(Cl)ccc(F)c1Cl [Crizotinib] (partner 1 µM)
Summary of the method: as §1

[4] = compound: Nc1nc(Nc2ccc3c(c2)CC[C@@H](N2CCCC2)CC3)nn1-c1cc2c(nn1)-c1ccccc1CCC2 [Bemcentinib] + COc1cc2c(Oc3ccc(NC(=O)C4(C(=O)Nc5ccc(F)cc5)CC4)cc3F)ccnc2cc1OCCCN1CCOCC1 [Foretinib] (partner 0.25 µM)
Summary of the method: as §1

With NCI-H1734 the relative viability ([1]; first compound 0.04 µM) was 1.04, the relative viability ([1]; first compound 0.1265 µM) was 0.74 and the relative viability ([1]; first compound 0.4 µM) was 0.718. It also gave a relative viability ([1]; first compound 1.265 µM) of 0.372, a relative viability ([1]; first compound 4 µM) of 0.514 and a relative viability ([2]; first compound 0.04 µM) of 0.643. It also gave a relative viability ([2]; first compound 0.1265 µM) of 0.66, a relative viability ([2]; first compound 0.4 µM) of 0.552 and a relative viability ([2]; first compound 1.265 µM) of 0.583. For the same cell line, the relative viability ([2]; first compound 4 µM) was 0.591, the relative viability ([3]; first compound 0.04 µM) was 0.686 and the relative viability ([3]; first compound 0.1265 µM) was 0.691. It also gave a relative viability ([3]; first compound 0.4 µM) of 0.669, a relative viability ([3]; first compound 1.265 µM) of 0.667 and a relative viability ([3]; first compound 4 µM) of 0.698. The relative viability ([4]; first compound 0.04 µM) was 0.854, the relative viability ([4]; first compound 0.1265 µM) was 0.916 and the relative viability ([4]; first compound 0.4 µM) was 0.818. For the same cell line, the relative viability ([4]; first compound 1.265 µM) was 0.838 and the relative viability ([4]; first compound 4 µM) was 0.952.
In the case of NCI-H1755, the relative viability ([1]; first compound 0.04 µM) is reported as 0.98, the relative viability ([1]; first compound 0.1265 µM) is reported as 1.03 and the relative viability ([1]; first compound 0.4 µM) is reported as 1.02. For the same cell line, the relative viability ([1]; first compound 1.265 µM) was 1.06, the relative viability ([1]; first compound 4 µM) was 1.04 and the relative viability ([2]; first compound 0.04 µM) was 0.79. The relative viability ([2]; first compound 0.1265 µM) was 0.711, the relative viability ([2]; first compound 0.4 µM) was 0.758 and the relative viability ([2]; first compound 1.265 µM) was 0.793. For the same cell line, the relative viability ([2]; first compound 4 µM) was 0.732, the relative viability ([3]; first compound 0.04 µM) was 0.901 and the relative viability ([3]; first compound 0.1265 µM) was 0.878. It also gave a relative viability ([3]; first compound 0.4 µM) of 0.838, a relative viability ([3]; first compound 1.265 µM) of 0.939 and a relative viability ([3]; first compound 4 µM) of 0.901. The relative viability ([4]; first compound 0.04 µM) was 0.925, the relative viability ([4]; first compound 0.1265 µM) was 0.923 and the relative viability ([4]; first compound 0.4 µM) was 0.947. It also gave a relative viability ([4]; first compound 1.265 µM) of 0.987 and a relative viability ([4]; first compound 4 µM) of 0.935.
Cell Line NCI-H1915 has a relative viability ([1]; first compound 0.04 µM) of 1.15, a relative viability ([1]; first compound 0.1265 µM) of 1.13 and a relative viability ([1]; first compound 0.4 µM) of 1.1. It also gave a relative viability ([1]; first compound 1.265 µM) of 1.07, a relative viability ([1]; first compound 4 µM) of 1.08 and a relative viability ([2]; first compound 0.04 µM) of 0.625. For the same cell line, the relative viability ([2]; first compound 0.1265 µM) was 0.661, the relative viability ([2]; first compound 0.4 µM) was 0.635 and the relative viability ([2]; first compound 1.265 µM) was 0.59. It also gave a relative viability ([2]; first compound 4 µM) of 0.696, a relative viability ([3]; first compound 0.04 µM) of 0.957 and a relative viability ([3]; first compound 0.1265 µM) of 1.03. It also gave a relative viability ([3]; first compound 0.4 µM) of 0.911, a relative viability ([3]; first compound 1.265 µM) of 0.96 and a relative viability ([3]; first compound 4 µM) of 0.989. The relative viability ([4]; first compound 0.04 µM) was 1.11, the relative viability ([4]; first compound 0.1265 µM) was 1.08 and the relative viability ([4]; first compound 0.4 µM) was 1.15. For the same cell line, the relative viability ([4]; first compound 1.265 µM) was 1.07 and the relative viability ([4]; first compound 4 µM) was 1.17.
NCI-H1944 gave a relative viability ([1]; first compound 0.04 µM) of 0.825, a relative viability ([1]; first compound 0.1265 µM) of 0.821 and a relative viability ([1]; first compound 0.4 µM) of 0.898. It also gave a relative viability ([1]; first compound 1.265 µM) of 0.871, a relative viability ([1]; first compound 4 µM) of 0.846 and a relative viability ([2]; first compound 0.04 µM) of 0.43. It also gave a relative viability ([2]; first compound 0.1265 µM) of 0.483, a relative viability ([2]; first compound 0.4 µM) of 0.407 and a relative viability ([2]; first compound 1.265 µM) of 0.413. It also gave a relative viability ([2]; first compound 4 µM) of 0.41, a relative viability ([3]; first compound 0.04 µM) of 1.13 and a relative viability ([3]; first compound 0.1265 µM) of 1.11. The relative viability ([3]; first compound 0.4 µM) was 1.17, the relative viability ([3]; first compound 1.265 µM) was 1.18 and the relative viability ([3]; first compound 4 µM) was 1.1. The relative viability ([4]; first compound 0.04 µM) was 0.876, the relative viability ([4]; first compound 0.1265 µM) was 0.924 and the relative viability ([4]; first compound 0.4 µM) was 0.866. The relative viability ([4]; first compound 1.265 µM) was 0.951 and the relative viability ([4]; first compound 4 µM) was 0.865.
With NCI-H1975 the relative viability ([1]; first compound 0.04 µM) was 0.645, the relative viability ([1]; first compound 0.1265 µM) was 0.676 and the relative viability ([1]; first compound 0.4 µM) was 0.715. For the same cell line, the relative viability ([1]; first compound 1.265 µM) was 0.605, the relative viability ([1]; first compound 4 µM) was 0.632 and the relative viability ([2]; first compound 0.04 µM) was 0.719. It also gave a relative viability ([2]; first compound 0.1265 µM) of 0.82, a relative viability ([2]; first compound 0.4 µM) of 0.737 and a relative viability ([2]; first compound 1.265 µM) of 0.795. It also gave a relative viability ([2]; first compound 4 µM) of 0.772, a relative viability ([3]; first compound 0.04 µM) of 1.07 and a relative viability ([3]; first compound 0.1265 µM) of 1.23. For the same cell line, the relative viability ([3]; first compound 0.4 µM) was 1.07, the relative viability ([3]; first compound 1.265 µM) was 1.1 and the relative viability ([3]; first compound 4 µM) was 1.17. The relative viability ([4]; first compound 0.04 µM) was 0.982, the relative viability ([4]; first compound 0.1265 µM) was 0.995 and the relative viability ([4]; first compound 0.4 µM) was 0.995. For the same cell line, the relative viability ([4]; first compound 1.265 µM) was 0.865 and the relative viability ([4]; first compound 4 µM) was 1.04.
NCI-H1993 gave a relative viability ([1]; first compound 0.04 µM) of 0.74, a relative viability ([1]; first compound 0.1265 µM) of 0.74 and a relative viability ([1]; first compound 0.4 µM) of 0.694. It also gave a relative viability ([1]; first compound 1.265 µM) of 0.712, a relative viability ([1]; first compound 4 µM) of 0.687 and a relative viability ([2]; first compound 0.04 µM) of 0.592. It also gave a relative viability ([2]; first compound 0.1265 µM) of 0.534, a relative viability ([2]; first compound 0.4 µM) of 0.557 and a relative viability ([2]; first compound 1.265 µM) of 0.548. For the same cell line, the relative viability ([2]; first compound 4 µM) was 0.506, the relative viability ([3]; first compound 0.04 µM) was 0.913 and the relative viability ([3]; first compound 0.1265 µM) was 0.966. For the same cell line, the relative viability ([3]; first compound 0.4 µM) was 0.876, the relative viability ([3]; first compound 1.265 µM) was 1.03 and the relative viability ([3]; first compound 4 µM) was 1.1. For the same cell line, the relative viability ([4]; first compound 0.04 µM) was 0.82, the relative viability ([4]; first compound 0.1265 µM) was 0.76 and the relative viability ([4]; first compound 0.4 µM) was 0.833. It also gave a relative viability ([4]; first compound 1.265 µM) of 0.764 and a relative viability ([4]; first compound 4 µM) of 0.829.
Work on NCI-H2009 yielded a relative viability ([1]; first compound 0.04 µM) of 1.23, a relative viability ([1]; first compound 0.1265 µM) of 1.2 and a relative viability ([1]; first compound 0.4 µM) of 1.24. For the same cell line, the relative viability ([1]; first compound 1.265 µM) was 1.2, the relative viability ([1]; first compound 4 µM) was 1.16 and the relative viability ([2]; first compound 0.04 µM) was 0.626. For the same cell line, the relative viability ([2]; first compound 0.1265 µM) was 0.743, the relative viability ([2]; first compound 0.4 µM) was 0.684 and the relative viability ([2]; first compound 1.265 µM) was 0.709. It also gave a relative viability ([2]; first compound 4 µM) of 0.665, a relative viability ([3]; first compound 0.04 µM) of 1.01 and a relative viability ([3]; first compound 0.1265 µM) of 1.08. The relative viability ([3]; first compound 0.4 µM) was 1.11, the relative viability ([3]; first compound 1.265 µM) was 0.951 and the relative viability ([3]; first compound 4 µM) was 1.05. The relative viability ([4]; first compound 0.04 µM) was 1.29, the relative viability ([4]; first compound 0.1265 µM) was 1.26 and the relative viability ([4]; first compound 0.4 µM) was 1.25. It also gave a relative viability ([4]; first compound 1.265 µM) of 1.24 and a relative viability ([4]; first compound 4 µM) of 1.24.
Cell Line NCI-H2023 has a relative viability ([1]; first compound 0.04 µM) of 0.678, a relative viability ([1]; first compound 0.1265 µM) of 0.602 and a relative viability ([1]; first compound 0.4 µM) of 0.72. The relative viability ([1]; first compound 1.265 µM) was 0.528, the relative viability ([1]; first compound 4 µM) was 0.587 and the relative viability ([2]; first compound 0.04 µM) was 0.323. It also gave a relative viability ([2]; first compound 0.1265 µM) of 0.511, a relative viability ([2]; first compound 0.4 µM) of 0.462 and a relative viability ([2]; first compound 1.265 µM) of 0.419. For the same cell line, the relative viability ([2]; first compound 4 µM) was 0.445, the relative viability ([3]; first compound 0.04 µM) was 0.648 and the relative viability ([3]; first compound 0.1265 µM) was 0.653. For the same cell line, the relative viability ([3]; first compound 0.4 µM) was 0.723, the relative viability ([3]; first compound 1.265 µM) was 0.6 and the relative viability ([3]; first compound 4 µM) was 0.599. It also gave a relative viability ([4]; first compound 0.04 µM) of 0.824, a relative viability ([4]; first compound 0.1265 µM) of 1.09 and a relative viability ([4]; first compound 0.4 µM) of 0.936. For the same cell line, the relative viability ([4]; first compound 1.265 µM) was 0.731 and the relative viability ([4]; first compound 4 µM) was 0.686.

From the supplement of paper PMC10307832
